Assay [1] concerns the target LRRK2, WT (GST-tagged truncated LRRK2) (Homo sapiens, UniProt Q5S007). The assay is described as follows: LRRK2 kinase assay (LanthaScreen), wild type. The class given is biochemical. To be noted: LanthaScreen, LRRKtide substrate. How it is done: (§1) LRRK2 kinase activity was measured using Lantha Screen technology from Invitrogen. GST-tagged truncated LRRK2 from Invitrogen (Cat #PV4874) was incubated with a fluorescein-labeled peptide substrate based upon ezrin/radixin/moesin (ERM), also known as LRRKtide (Invitrogen cat #PR8976A), in the presence of a dose response of compound. Upon completion, the assay was stopped and detected with a terbium labeled anti-phospho-ERM antibody (Invitrogen, cat #PR8975A). […] Using Echo acoustic dispensing, 60 nL of compound was transferred to a low volume Corning 384-well assay plate. 3 μL of a working solution of substrate (200 nM LRRKtide, 2 mM ATP) prepared in assay buffer (50 mM HEPES, pH 7.5, 3 mM MgCl2, with 2 mM DTT and 0.01% Brij35 added fresh) was added to the 60 nL compound assay plate. The kinase reaction was started with 3 μL of a working solution of LRRK2 enzyme at a concentration of 4 μg/m L. The final reaction concentrations were 100 nM LRRKtide, 1 mM ATP, 2 μg/mL LRRK2 enzyme and a compound dose response with a top dose of 3 μM. The reaction was allowed to progress at room temperature for 30 minutes and then stopped with the addition of 6 μL of detection buffer (20 mM Tris pH 7.6, 0.01% NP-40, 6 mM EDTA with 2 nM terbium labeled antiphospho-ERM). […] All final concentrations of substrate ATP and enzyme were the same.
On the technique in general: TR-FRET usually uses a lanthanide donor and a delayed reading to cut background.

The next assay has as its target mutant G2019S LRRK2 (Homo sapiens (Human), UniProt Q5S007, G2019S). The assay is described as follows: LRRK2 kinase assay (LanthaScreen), G2019S mutant. Type of assay: biochemical. To be noted: G2019S mutant LRRK2; LanthaScreen, LRRKtide substrate; read-out: LRRK2, G2019S IC50. On the procedure:
as §1

Data on 27 compounds can be found in patent US11312713B2, “Imidazo[4,5-C]quinoline derivatives as LRRK2 inhibitors” (Pfizer Inc., priority 2017, dated 2022).

pIC50: −log10 of the molar value.

mutant G2019S LRRK2, sequence (Q5S007 whole entry G2019S): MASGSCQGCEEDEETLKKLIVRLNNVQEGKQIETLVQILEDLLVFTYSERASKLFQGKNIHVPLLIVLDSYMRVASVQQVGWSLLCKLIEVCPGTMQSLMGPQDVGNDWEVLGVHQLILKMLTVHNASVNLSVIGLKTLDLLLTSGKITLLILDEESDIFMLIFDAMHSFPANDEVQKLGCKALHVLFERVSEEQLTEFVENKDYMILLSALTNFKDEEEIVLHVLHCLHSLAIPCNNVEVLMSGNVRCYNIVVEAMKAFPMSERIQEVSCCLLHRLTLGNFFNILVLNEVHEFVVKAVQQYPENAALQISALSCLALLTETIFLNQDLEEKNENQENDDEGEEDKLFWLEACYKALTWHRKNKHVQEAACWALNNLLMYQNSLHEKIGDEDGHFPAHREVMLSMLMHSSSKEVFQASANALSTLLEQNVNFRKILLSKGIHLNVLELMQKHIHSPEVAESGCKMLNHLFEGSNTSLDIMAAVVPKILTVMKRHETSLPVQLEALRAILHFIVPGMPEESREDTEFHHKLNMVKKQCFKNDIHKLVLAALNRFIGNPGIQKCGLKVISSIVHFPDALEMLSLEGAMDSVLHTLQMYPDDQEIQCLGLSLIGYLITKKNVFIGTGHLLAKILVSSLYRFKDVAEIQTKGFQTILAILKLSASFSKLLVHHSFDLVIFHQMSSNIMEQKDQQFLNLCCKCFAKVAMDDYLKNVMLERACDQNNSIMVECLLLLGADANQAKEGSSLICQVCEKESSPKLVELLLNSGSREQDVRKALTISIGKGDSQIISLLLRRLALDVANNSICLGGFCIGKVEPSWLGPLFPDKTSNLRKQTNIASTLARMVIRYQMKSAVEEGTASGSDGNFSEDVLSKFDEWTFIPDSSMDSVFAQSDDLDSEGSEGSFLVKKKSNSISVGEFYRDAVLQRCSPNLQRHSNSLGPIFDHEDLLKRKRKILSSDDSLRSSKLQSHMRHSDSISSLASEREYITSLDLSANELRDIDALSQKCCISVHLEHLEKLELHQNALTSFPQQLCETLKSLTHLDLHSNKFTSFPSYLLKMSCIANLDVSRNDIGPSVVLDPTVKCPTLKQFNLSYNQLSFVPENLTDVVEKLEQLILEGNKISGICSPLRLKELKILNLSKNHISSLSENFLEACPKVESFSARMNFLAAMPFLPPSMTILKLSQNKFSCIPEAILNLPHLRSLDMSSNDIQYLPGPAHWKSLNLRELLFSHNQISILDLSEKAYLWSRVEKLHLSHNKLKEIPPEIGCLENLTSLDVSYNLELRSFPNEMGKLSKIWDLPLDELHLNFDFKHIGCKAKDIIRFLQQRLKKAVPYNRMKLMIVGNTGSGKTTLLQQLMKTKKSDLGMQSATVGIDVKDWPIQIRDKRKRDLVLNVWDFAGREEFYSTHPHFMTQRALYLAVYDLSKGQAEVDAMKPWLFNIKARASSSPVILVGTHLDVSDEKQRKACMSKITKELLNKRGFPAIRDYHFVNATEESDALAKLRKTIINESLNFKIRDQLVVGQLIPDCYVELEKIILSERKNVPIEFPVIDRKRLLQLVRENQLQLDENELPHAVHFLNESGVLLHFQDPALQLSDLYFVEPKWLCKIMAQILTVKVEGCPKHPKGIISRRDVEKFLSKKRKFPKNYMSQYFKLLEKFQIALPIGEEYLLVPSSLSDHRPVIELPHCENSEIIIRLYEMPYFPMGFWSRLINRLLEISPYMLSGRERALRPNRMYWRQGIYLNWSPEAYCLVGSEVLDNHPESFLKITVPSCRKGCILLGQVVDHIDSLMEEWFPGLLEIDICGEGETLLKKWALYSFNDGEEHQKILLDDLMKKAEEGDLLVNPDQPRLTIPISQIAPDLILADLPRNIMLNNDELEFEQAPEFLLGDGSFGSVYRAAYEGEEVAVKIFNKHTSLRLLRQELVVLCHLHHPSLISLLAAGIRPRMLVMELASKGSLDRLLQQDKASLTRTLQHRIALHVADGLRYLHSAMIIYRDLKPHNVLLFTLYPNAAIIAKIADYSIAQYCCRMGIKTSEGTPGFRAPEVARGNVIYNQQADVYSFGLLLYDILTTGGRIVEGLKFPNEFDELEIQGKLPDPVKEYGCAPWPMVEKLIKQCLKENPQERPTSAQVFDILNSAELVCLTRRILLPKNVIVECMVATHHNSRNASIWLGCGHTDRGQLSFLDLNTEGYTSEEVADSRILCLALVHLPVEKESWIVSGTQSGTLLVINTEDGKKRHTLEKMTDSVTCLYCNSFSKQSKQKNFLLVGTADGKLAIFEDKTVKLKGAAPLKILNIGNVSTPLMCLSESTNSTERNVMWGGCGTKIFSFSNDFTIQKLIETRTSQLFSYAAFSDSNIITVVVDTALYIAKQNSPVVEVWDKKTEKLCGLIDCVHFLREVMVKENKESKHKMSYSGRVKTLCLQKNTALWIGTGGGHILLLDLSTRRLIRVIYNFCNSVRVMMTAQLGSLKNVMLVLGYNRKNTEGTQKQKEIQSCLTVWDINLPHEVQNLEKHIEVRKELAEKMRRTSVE

As usually defined, the pIC50 is the IC50 on a negative log10 scale, so that one unit is a factor of ten. On to `CN1CC(n2c(Cn3cnnn3)nc3cnc4ccc(Cl)cc4c32)C(F)(F)C1` (stereo not drawn) [Example 86, 8-chloro-1-(4,4-difluoro-1-methylpyrrolidin-3-yl)-2-(1H-tetrazol-1-ylmethyl)-1H-imidazo[4,5-c]quinoline], for which the figures for the pIC50 (in assay [1] (wild type LRRK2); at mutant G2019S LRRK2) were 8.18 and 8.36, respectively. Consider `Cc1nnc(Cc2nc3cnc4ccc(Cl)cc4c3n2C2CCOCC2(F)F)s1` (stereo not drawn) [Example 92, 8-chloro-1-(3,3-difluorotetrahydro-2H-pyran-4-yl)-2-[(5-methyl-1,3,4-thiadiazol-2-yl)methyl]-1H-imidazo[4,5-c]quinoline], for which the results for the pIC50 (in assay [1] (wild type LRRK2); on mutant G2019S LRRK2) were 7.96 and 8.16, respectively. The matching figures for `FC1(F)COCCC1n1c(Cn2cc(C3CC3)nn2)nc2cnc3ccc(Cl)cc3c21` (stereo not drawn) [Example 94, 8-chloro-2-[(4-cyclopropyl-1H-1,2,3-triazol-1-yl)methyl]-1-(3,3-difluorotetrahydro-2H-pyran-4-yl)-1H-imidazo[4,5-c]quinolone]: 8.20 and 8.19. The matching figures for `Cc1nc(Cc2nc3cnc4ccc(Cl)cc4c3n2C2CN(C)CC2(F)F)no1` (stereo not drawn) [Example 88, 8-chloro-1-(4,4-difluoro-1-methylpyrrolidin-3-yl)-2-[(5-methyl-1,2,4-oxadiazol-3-yl)methyl]-1H-imidazo[4,5-c]quinoline]: 8.03 and 8.09.

Regarding `N#CCC1CC(n2c(C3CCC3)nc3cnc4ccc(Cl)cc4c32)CCO1` (single isomer, unassigned) [Example 11, [cis-4-(8-Chloro-2-cyclobutyl-1H-imidazo[4,5-c]quinolin-1-yl)tetrahydro-2H-pyran-2-yl]acetonitrile], the pIC50 is 7.74 in assay [1] (wild type LRRK2) and 8.30 at mutant G2019S LRRK2. Turning to `CN1CC(n2c(Cn3cc(C4CC4)nn3)nc3cnc4ccc(Cl)cc4c32)C(F)(F)C1` (stereo not drawn) [enantiomer of Example 47, 8-chloro-2-[(4-cyclopropyl-1H-1,2,3-triazol-1-yl)methyl]-1-(4,4-difluoro-1-methylpyrrolidin-3-yl)-1H-imidazo[4,5-c]quinoline], the pIC50 in assay [1] (1 mM ATP) is 7.01.

In assay [1] (1 mM ATP), `Cc1cn(Cc2nc3cnc4ccc(Cl)cc4c3n2C2CN(C)CC2(F)F)nn1` (stereo not drawn) [enantiomer of Example 48, 8-chloro-1-(4,4-difluoro-1-methylpyrrolidin-3-yl)-2-[(4-methyl-1H-1,2,3-triazol-1-yl)methyl]-1H-imidazo[4,5-c]quinoline] had a pIC50 of 6.84. The same measure, in the same setting: the same measure for `Fc1ccc2ncc3nc(Cc4csnn4)n([C@H]4CC[C@@H](F)C4)c3c2c1` (relative stereo) [enantiomer of Example 79, 8-fluoro-1-[cis-3-fluorocyclopentyl]-2-(1,2,3-thiadiazol-4-ylmethyl)-1H-imidazo[4,5-c]quinoline]: 8.12. On the same count and under the same terms, the same measure for `COCc1cn(Cc2nc3cnc4ccc(F)cc4c3n2C2CN(C)CC2(F)F)nn1` (stereo not drawn) [enantiomer of Example 53, 1-(4,4-difluoro-1-methylpyrrolidin-3-yl)-8-fluoro-2-{[4-(methoxymethyl)-1H-1,2,3-triazol-1-yl]methyl}-1H-imidazo[4,5-c]quinoline]: 6.64. In assay [1] (wild type LRRK2), `N#CCC1CC(n2c(C3CCC3)nc3cnc4ccc(Cl)cc4c32)CCO1` (stereo not drawn) [Example 10, [cis-4-(8-Chloro-2-cyclobutyl-1H-imidazo[4,5-c]quinolin-1-yl)tetrahydro-2H-pyran-2-yl]acetonitrile] had a pIC50 of 5.75. The compound `Cc1nc2cnc3ccc(Cl)cc3c2n1[C@H]1CCO[C@@H](CC#N)C1` (relative stereo) [enantiomer of Example 31, [cis-4-(8-chloro-2-methyl-1H-imidazo[4,5-c]quinolin-1-yl)tetrahydro-2H-pyran-2-yl]acetonitrile] showed a pIC50 in assay [1] (1 mM ATP) of 5.78. Same read-out and setting: the same measure for `Cc1cnn(Cc2nc3cnc4ccc(Cl)cc4c3n2C2CN(C)CC2(F)F)n1` (stereo not drawn) [enantiomer of Example 87, 8-chloro-1-(4,4-difluoro-1-methylpyrrolidin-3-yl)-2-[(4-methyl-2H-1,2,3-triazol-2-yl)methyl]-1H-imidazo[4,5-c]quinoline]: 7.42; for `CC(C#N)Cc1nc2cnc3ccc(Cl)cc3c2n1[C@@H]1CCO[C@H](C)C1` (stereo partly drawn) [diastereomer of Example 78, 3-{8-chloro-1-[(2R,4R)-2-methyltetrahydro-2H-pyran-4-yl]-1H-imidazo[4,5-c]quinolin-2-yl}-2-methylpropanenitrile]: 7.43; for `Cc1cc(Cc2nc3cnc4ccc(Cl)cc4c3n2[C@H]2CCO[C@@H](C(F)F)C2)no1` (relative stereo) [enantiomer of Example 59, 8-chloro-1-[cis-2-(difluoromethyl)tetrahydro-2H-pyran-4-yl]-2-[(5-methyl-1,2-oxazol-3-yl)methyl]-1H-imidazo[4,5-c]quinoline]: 6.20.

In the case of `Cc1nnc(Cc2nc3cnc4ccc(Cl)cc4c3n2C2CCOCC2(F)F)s1` (stereo not drawn) [enantiomer of Example 92, 8-chloro-1-(3,3-difluorotetrahydro-2H-pyran-4-yl)-2-[(5-methyl-1,3,4-thiadiazol-2-yl)methyl]-1H-imidazo[4,5-c]quinoline], the negative-log IC50 (pIC50) in assay [1] (1 mM ATP) was 7.47. For `Cc1cnn(Cc2nc3cnc4ccc(C#N)cc4c3n2C2CN(C)CC2(F)F)n1` (single isomer, unassigned) [Example 3, 1-(4,4-Difluoro-1-methylpyrrolidin-3-yl)-2-[(4-methyl-2H-1,2,3-triazol-2-yl)methyl]-1H-imidazo[4,5-c]quinoline-8-carbonitrile], the pIC50 in assay [1] (wild type LRRK2) is 7.50. Same read-out and setting: with `Cc1nn2cc(Cc3nc4cnc5ccc(F)cc5c4n3C3CN(C)CC3(F)F)nc2s1` (stereo not drawn) [Example 85, 1-(4,4-difluoro-1-methylpyrrolidin-3-yl)-8-fluoro-2-[(2-methylimidazo[2,1-b][1,3,4]thiadiazol-6-yl)methyl]-1H-imidazo[4,5-c]quinoline] the figure was 8.58. `Cc1nc(Cc2nc3cnc4ccc(Cl)cc4c3n2C2CN(C)CC2(F)F)no1` (stereo not drawn) [enantiomer of Example 88, 8-chloro-1-(4,4-difluoro-1-methylpyrrolidin-3-yl)-2-[(5-methyl-1,2,4-oxadiazol-3-yl)methyl]-1H-imidazo[4,5-c]quinoline] showed a pIC50 in assay [1] (1 mM ATP) of 6.58.

`Cc1cnc(Cc2nc3cnc4ccc(Cl)cc4c3n2C2CN(C)CC2(F)F)cn1` (stereo not drawn) [enantiomer of Example 50, 8-chloro-1-(4,4-difluoro-1-methylpyrrolidin-3-yl)-2-[(5-methylpyrazin-2-yl)methyl]-1H-imidazo[4,5-c]quinoline] showed a pIC50 in assay [1] (1 mM ATP) of 6.74. Still for that read-out and setting: with `COCc1cn(Cc2nc3cnc4ccc(Cl)cc4c3n2C2CCOCC2(F)F)nn1` (stereo not drawn) [enantiomer of Example 55, 8-chloro-1-(3,3-difluorotetrahydro-2H-pyran-4-yl)-2-{[4-(methoxymethyl)-1H-1,2,3-triazol-1-yl]methyl}-1H-imidazo[4,5-c]quinoline] the figure was 7.82.

In the case of `FC1(F)COCCC1n1c(Cn2cncn2)nc2cnc3ccc(Cl)cc3c21` (stereo not drawn) [Example 54, 8-chloro-1-(3,3-difluorotetrahydro-2H-pyran-4-yl)-2-(1H-1,2,4-triazol-1-ylmethyl)-1H-imidazo[4,5-c]quinoline], the negative-log IC50 (pIC50) in assay [1] (1 mM ATP) and in assay [1] (wild type LRRK2) was 7.99 each time. In assay [1] (1 mM ATP), `FC1(F)COCCC1n1c(Cn2cc(C3CC3)nn2)nc2cnc3ccc(Cl)cc3c21` (stereo not drawn) [enantiomer of Example 94, 8-chloro-2-[(4-cyclopropyl-1H-1,2,3-triazol-1-yl)methyl]-1-(3,3-difluorotetrahydro-2H-pyran-4-yl)-1H-imidazo[4,5-c]quinoline] showed a pIC50 of 8.03. The same measure, in the same setting: with `Cc1nc(Cc2nc3cnc4ccc(C#N)cc4c3n2C2CN(C)CC2(F)F)no1` (stereo not drawn) [enantiomer of Example 32, 1-(4,4-difluoro-1-methylpyrrolidin-3-yl)-2-[(5-methyl-1,2,4-oxadiazol-3-yl)methyl]-1H-imidazo[4,5-c]quinoline-8-carbonitrile] the figure was 6.33.

Compound `CCc1nc2cnc3ccc(Cl)cc3c2n1[C@H]1CCO[C@@H](CC#N)C1` [Example 2, [(2R,4S)-4-(8-Chloro-2-ethyl-1H-imidazo[4,5-c]quinolin-1-yl)tetrahydro-2H-pyran-2-yl]acetonitrile] gave a pIC50 in assay [1] (wild type LRRK2) of 5.82. With `CN1CC(n2c(Cn3cnnn3)nc3cnc4ccc(Cl)cc4c32)C(F)(F)C1` (stereo not drawn) [enantiomer of Example 86, 8-chloro-1-(4,4-difluoro-1-methylpyrrolidin-3-yl)-2-(1H-tetrazol-1-ylmethyl)-1H-imidazo[4,5-c]quinoline], in assay [1] (1 mM ATP), the pIC50 was 6.57. Still for that read-out and setting: with `Cc1nnn(Cc2nc3cnc4ccc(Cl)cc4c3n2C2CN(C)CC2(F)F)n1` (stereo not drawn) [enantiomer of Example 49, 8-chloro-1-(4,4-difluoro-1-methylpyrrolidin-3-yl)-2-[(5-methyl-2H-tetrazol-2-yl)methyl]-1H-imidazo[4,5-c]quinoline] the figure was 7.34; with `Cc1nn2cc(Cc3nc4cnc5ccc(F)cc5c4n3C3CN(C)CC3(F)F)nc2s1` (stereo not drawn) [enantiomer of Example 85, 1-(4,4-difluoro-1-methylpyrrolidin-3-yl)-8-fluoro-2-[(2-methylimidazo[2,1-b][1,3,4]thiadiazol-6-yl)methyl]-1H-imidazo[4,5-c]quinoline], 7.25.
